Measured values from patent publication US20240158446A1, “CYCLIC COMPOUND HAVING SELECTIVE INHIBITORY ACTION ON KRAS OVER HRAS AND NRAS” (CHUGAI SEIYAKU KABUSHIKI KAISHA, priority 2021, published 2024).

Key:
[1] = molecular target: GDP-bound NRAS wild-type protein (Homo sapiens, UniProt P01111); assay: Binding to NRAS by surface plasmon resonance (SPR), Single Cycle Kinetics; details: for NRAS/KRAS (ratio of KD value with respect to NRAS to KD value with respect to KRAS) / NRAS/KRAS (ratio of KD value for NRAS to KD value for KRAS): SPR, GDP-bound NRAS wild-type protein vs GDP-bound KRAS wild-type protein
[2] = molecular target: GDP-bound HRAS wild-type protein (Homo sapiens, UniProt P01112); assay: Binding to HRAS by surface plasmon resonance (SPR), Single Cycle Kinetics; details: for HRAS/KRAS (ratio of KD value with respect to HRAS to KD value with respect to KRAS) / HRAS/KRAS (ratio of KD value for HRAS to KD value for KRAS): SPR, GDP-bound HRAS wild-type protein vs GDP-bound KRAS wild-type protein
GDP-bound HRAS wild-type protein, sequence (P01112 whole entry): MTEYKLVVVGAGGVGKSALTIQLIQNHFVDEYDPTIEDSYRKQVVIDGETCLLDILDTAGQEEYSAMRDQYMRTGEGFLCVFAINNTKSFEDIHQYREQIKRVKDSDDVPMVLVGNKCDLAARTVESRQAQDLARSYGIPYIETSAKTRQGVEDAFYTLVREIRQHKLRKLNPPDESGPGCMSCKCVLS

GDP-bound NRAS wild-type protein, sequence (P01111 whole entry): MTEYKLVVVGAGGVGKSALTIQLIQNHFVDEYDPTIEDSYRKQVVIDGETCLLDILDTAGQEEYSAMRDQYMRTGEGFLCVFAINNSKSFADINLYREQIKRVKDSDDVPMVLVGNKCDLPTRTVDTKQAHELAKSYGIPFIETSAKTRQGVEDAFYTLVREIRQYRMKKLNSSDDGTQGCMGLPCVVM

CCO[C@@H]1C[C@H]2C(=O)NC3(CCC3)C(=O)N(C)[C@@H](C3CCCC3)C(=O)N(C)[C@H](C(=O)N(C)C)CC(=O)N(C)[C@@H](CC3CCCCC3)C(=O)N[C@@H]([C@@H](C)CC)C(=O)N(C)CC(=O)N(C)[C@H]3CCCCCN(C3=O)[C@@H](Cc3ccc(C(F)(F)F)cc3)C(=O)N(C)CC(=O)N[C@@H](CCc3cc(F)c(C(F)(F)F)c(F)c3)C(=O)N2C1 [PP0671]
NRAS/KRAS (ratio of KD value with respect to NRAS to KD value with respect to KRAS) [1]: B (a compound having 3 or more and less than 10 is denoted as B)
HRAS/KRAS (ratio of KD value with respect to HRAS to KD value with respect to KRAS) [2]: B (a compound having 3 or more and less than 10 is denoted as B)

CCO[C@@H]1C[C@H]2C(=O)NC3(CCC3)C(=O)N(C)[C@@H](C3CCCC3)C(=O)N(C)[C@H](C(=O)N3CCOCC3)CC(=O)N(C)[C@@H](CC3CCCC3)C(=O)N[C@@H]([C@@H](C)CC)C(=O)N(C)CC(=O)N(C)[C@H]3CCCCCN(C3=O)[C@@H](Cc3ccc(C(F)(F)F)cc3)C(=O)N(C)CC(=O)N[C@@H](CCc3cc(F)c(C(F)(F)F)c(F)c3)C(=O)N2C1 [PP0685]
NRAS/KRAS (ratio of KD value with respect to NRAS to KD value with respect to KRAS) [1]: B (a compound having 3 or more and less than 10 is denoted as B)
HRAS/KRAS (ratio of KD value with respect to HRAS to KD value with respect to KRAS) [2]: B (a compound having 3 or more and less than 10 is denoted as B)

CCO[C@@H]1C[C@H]2C(=O)NC3(CCC3)C(=O)N(C)[C@@H](C3CCCC3)C(=O)N(CCc3ccccc3)[C@H](C(=O)N3CCOCC3)CC(=O)N(C)[C@@H](CC(C)C)C(=O)N[C@@H]([C@@H](C)CC)C(=O)N(C)CC(=O)N(C)[C@H]3CCCCCN(C3=O)[C@@H](Cc3ccc(C(F)(F)F)cc3)C(=O)N(C)CC(=O)N[C@@H](CCc3cc(F)c(C(F)(F)F)c(F)c3)C(=O)N2C1 [PP0642]
NRAS/KRAS (ratio of KD value with respect to NRAS to KD value with respect to KRAS) [1]: B (a compound having 3 or more and less than 10 is denoted as B)
HRAS/KRAS (ratio of KD value with respect to HRAS to KD value with respect to KRAS) [2]: B (a compound having 3 or more and less than 10 is denoted as B)

CCC[C@H]1C(=O)N[C@@H](C2CCCCC2)C(=O)N(C)CC(=O)N(C)[C@H]2C/C=C\CCN(C2=O)[C@@H](Cc2ccc(C)cc2)C(=O)N(C)CC(=O)N[C@@H](CCc2ccc(C(F)(F)F)c(Cl)c2)C(=O)N2C[C@H](OCC)C[C@H]2C(=O)NC2(CC(C)(C)C2)C(=O)N(C)[C@@H](C2CCCC2)C(=O)N(C)[C@H](C(=O)N(C)C)CC(=O)N1C [PP2998]
NRAS/KRAS (ratio of KD value for NRAS to KD value for KRAS) [1]: A (a compound having 10 or more and less than 20 is denoted as A)
HRAS/KRAS (ratio of KD value for HRAS to KD value for KRAS) [2]: AA (a compound having 20 or more is denoted as AA)

CC[C@H](C)[C@@H]1NC(=O)[C@H](CC(C)C)N(C)C(=O)C[C@@H](C(=O)N2CCOCC2)N(C)C(=O)[C@H](C2CCCC2)N(C)C(=O)C2(COC2)NC(=O)[C@@H]2CCCN2C(=O)[C@H](CCc2cc(F)c(C(F)(F)F)c(F)c2)NC(=O)CN(C)C(=O)[C@H](Cc2ccc(C(F)(F)F)cc2)N2CCCCC[C@@H](C2=O)N(C)C(=O)CN(C)C1=O [PP0501]
NRAS/KRAS (ratio of KD value with respect to NRAS to KD value with respect to KRAS) [1]: B (a compound having 3 or more and less than 10 is denoted as B)
HRAS/KRAS (ratio of KD value with respect to HRAS to KD value with respect to KRAS) [2]: B (a compound having 3 or more and less than 10 is denoted as B)

CC[C@H](C)[C@@H]1NC(=O)[C@H](CC(C)C)N(C)C(=O)C[C@@H](C(=O)N2CCOCC2)N(C)C(=O)[C@H](C2CCCC2)N(C)C(=O)C2(CCC2)NC(=O)[C@@H]2[C@@H](O)CCN2C(=O)[C@H](CCc2cc(F)c(C(F)(F)F)c(F)c2)NC(=O)CN(C)C(=O)[C@H](Cc2ccc(C(F)(F)F)cc2)N2CCCCC[C@@H](C2=O)N(C)C(=O)CN(C)C1=O [PP0872]
NRAS/KRAS (ratio of KD value for NRAS to KD value for KRAS) [1]: A (a compound having 10 or more and less than 20 is denoted as A)
HRAS/KRAS (ratio of KD value for HRAS to KD value for KRAS) [2]: A (a compound having 10 or more and less than 20 is denoted as A)

CCO[C@@H]1C[C@H]2C(=O)NC3(CCC3)C(=O)N(C)[C@@H](C3CCCC3)C(=O)N(C)[C@H](C(=O)N(CC)CC)CC(=O)N(C)[C@@H](CC(F)F)C(=O)N[C@@H]([C@@H](C)CC)C(=O)N(C)CC(=O)N(C)[C@H]3C/C=C\CCN(C3=O)[C@@H](Cc3ccc(C(F)(F)F)cc3)C(=O)N(C)CC(=O)N[C@@H](CCc3cc(F)c(C(F)(F)F)c(F)c3)C(=O)N2C1 [PP1309]
NRAS/KRAS (ratio of KD value for NRAS to KD value for KRAS) ([1]; KD ratio class): A (a compound having 10 or more and less than 20 is denoted as A)
HRAS/KRAS (ratio of KD value for HRAS to KD value for KRAS) ([2]; KD ratio class): A (a compound having 10 or more and less than 20 is denoted as A)

CCC(CC)[C@H]1C(=O)N(C)[C@H](C(=O)N(C)C)CC(=O)N(C)[C@@H](COC)C(=O)N[C@@H]([C@@H](C)CC)C(=O)N(C)CC(=O)N(C)[C@H]2C/C=C\CCN(C2=O)[C@@H](Cc2ccc(C)cc2)C(=O)N(C)CC(=O)N[C@@H](CCc2ccc(C(F)(F)F)c(OC)c2)C(=O)N2CCOC[C@H]2C(=O)NC2(CC(C)(C)C2)C(=O)N1C [PP2938]
NRAS/KRAS (ratio of KD value with respect to GDP-bound NRAS wild-type protein to KD value with respect to KRAS) ([1]; SPR KD ratio NRAS/KRAS, class symbols): AA (a compound having 20 or more is denoted as AA)
HRAS/KRAS (ratio of KD value with respect to GDP-bound HRAS wild-type protein to KD value with respect to KRAS) ([2]; SPR KD ratio HRAS/KRAS, class symbols): A (a compound having 10 or more and less than 20 is denoted as A)

CCO[C@@H]1C[C@H]2C(=O)NC3(CCC3)C(=O)N(C)[C@@H](C3CCCC3)C(=O)N(C)[C@H](C)CC(=O)N(C)[C@@H](CC(C)C)C(=O)N[C@@H]([C@@H](C)CC)C(=O)N(C)CC(=O)N(C)[C@H]3C/C=C\CCN(C3=O)[C@@H](Cc3ccc(F)cc3C)C(=O)N(C)CC(=O)N[C@@H](CCc3cc(F)c(C(F)(F)F)c(F)c3)C(=O)N2C1 [PP1493]
NRAS/KRAS (ratio of KD value for NRAS to KD value for KRAS) ([1]; KD ratio class): B (a compound having 3 or more and less than 10 is denoted as B)
HRAS/KRAS (ratio of KD value for HRAS to KD value for KRAS) ([2]; KD ratio class): B (a compound having 3 or more and less than 10 is denoted as B)

CCO[C@@H]1C[C@H]2C(=O)NC3(CCC3)C(=O)N(C)[C@@H](C3CCCC3)C(=O)N(C)[C@H](C(=O)N3C4CCC3COC4)CC(=O)N(C)[C@@H](CC)C(=O)N[C@@H]([C@@H](C)CC)C(=O)N(C)CC(=O)N(C)[C@H]3C/C=C\CCN(C3=O)[C@@H](Cc3ccc(C(F)(F)F)cc3)C(=O)N(C)CC(=O)N[C@@H](CCc3cc(F)c(C(F)(F)F)c(F)c3)C(=O)N2C1 [PP1093]
NRAS/KRAS (ratio of KD value for NRAS to KD value for KRAS) [1]: AA (a compound having 20 or more is denoted as AA)
HRAS/KRAS (ratio of KD value for HRAS to KD value for KRAS) [2]: A (a compound having 10 or more and less than 20 is denoted as A)

CCC[C@H]1C(=O)N[C@@H](C2CCCC2)C(=O)N(C)CC(=O)N(C)[C@H]2C/C=C\CCN(C2=O)[C@@H](Cc2ccc(C)cc2)C(=O)N(C)CC(=O)N[C@@H](CCc2ccc(C(F)(F)F)c(Cl)c2)C(=O)N2C[C@H](OCC)C[C@H]2C(=O)NC2(CC(C)(C)C2)C(=O)N(C)[C@@H](CC(F)(F)F)C(=O)N(C)[C@H](C(=O)N(C)C)CC(=O)N1C [PP2192]
NRAS/KRAS (ratio of KD value for NRAS to KD value for KRAS) [1]: A (a compound having 10 or more and less than 20 is denoted as A)
HRAS/KRAS (ratio of KD value for HRAS to KD value for KRAS) [2]: A (a compound having 10 or more and less than 20 is denoted as A)

CCCOC[C@H]1C(=O)N[C@@H]([C@@H](C)CC)C(=O)N(C)CC(=O)N(C)[C@H]2C/C=C\CCN(C2=O)[C@@H](Cc2ccc(C)cc2)C(=O)N(C)CC(=O)N[C@@H](CCc2ccc(C(F)(F)F)c(OC)c2)C(=O)N2C[C@H](OCC)C[C@H]2C(=O)N(C)C2(CCC2)C(=O)N(C)[C@@H](C2CCCC2)C(=O)N(C)[C@H](C(=O)N(C)C)CC(=O)N1C [PP2326]
NRAS/KRAS (ratio of KD value for NRAS to KD value for KRAS) [1]: A (a compound having 10 or more and less than 20 is denoted as A)
HRAS/KRAS (ratio of KD value for HRAS to KD value for KRAS) [2]: B (a compound having 3 or more and less than 10 is denoted as B)
